Measured values: article PMC10989020, “Preclinical characterization of a non-peptidomimetic HIV protease inhibitor with improved metabolic stability” (Antimicrobial Agents and Chemotherapy, 2024)
Read-outs that look alike come from different tables or passages of the source.

How the values were obtained:
HIV-1 IIIb = assay: Dose-escalation resistance selection in MT-2 cells; type: cell-based
HIV-1IIIb = assay: Antiviral activity in MT-2/HIV-1IIIb cultures; type: cell-based; details: Human immunodeficiency virus 1
Cytotoxicity in Huh-7 = type: cell-based; details: human, Huh-7 cells
Method: (§1) Compound cytotoxicity assessment in MT-4 cells, primary CD4+ T lymphocytes, and MDMs was carried out using a protocol identical to the antiviral assay except uninfected cells were used and tested with higher concentration ranges of test compounds. Assessment of cytotoxicity in additional human cell lines (Gal-PC3, Gal-HepG2, HEp-2, Huh-7, MRC-5, HepG2-NTCP, Huh7-Lunet HCV 1b and 2a replicons, NHBE, A549-hACE2) and primary human PBMCs (resting and stimulated with PHA/IL-2) and hepatocytes have been described previously ([19]). For all cytotoxicity assays, the CC50 value for puromycin was determined as a positive internal control and to assess assay sensitivity in each cell type. The effect of tested compounds on cell viability was measured using a CellTiter-Glo readout, performed according to the manufacturer’s recommendations.

HIV-1 BaL [1] = assay: p24 production antiviral assay in CD4+ T-lymphocytes; type: cell-based; details: Human immunodeficiency virus 1, T-lymphocyte, HIV-1BaL infected
Description: (§2) Antiviral assays performed in HIV-1BaL infected CD4 +T-lymphocytes and monocyte-derived macrophages (MDMs) have been described previously ([18]). Cell-free supernatants derived from the CD4 +T cell and macrophage cultures were harvested 7- and 12-days post-infection, respectively, and the amount of HIV present was quantified by p24 antigen enzyme-linked immunosorbent assay (ELISA, Perkin Elmer, Waltham, MA) performed according to the manufacturer’s protocol.

Cytotoxicity in NHBE = type: cell-based; details: human, NHBE cells
Method: as §1

in vitro = type: cell-based; details: human
Method: as §1

[2] = Predicted clearance from cynomolgus monkey liver microsome fractions; type: in vitro ADME
HCV-1b = assay: microbe, parasite or virus in culture; details: Hepatitis C virus, Huh-7
[3] = human
HBV = assay: microbe, parasite or virus in culture; details: Hepatitis B virus
Method: (§3) The hepatitis B virus (HBV) surface antigen (HBsAg) antiviral assay was performed as previously described ([28]) using ND-654 as a positive control. The respiratory syncytial virus (RSV) A2 HEp-2 antiviral assay was performed as previously described ([29]) using YM-53403 as a positive control. The severe acute respiratory syndrome coronavirus 2 (SARS-CoV-2) antiviral assay was performed as described previously ([30]) using remdesivir as a positive control.

HIV-1 BaL [4] = assay: p24 production antiviral assay in monocyte-derived macrophages; type: cell-based; details: Human immunodeficiency virus 1, Macrophage, HIV-1BaL infected
Description: as §2

[5] = system: 20 HIV-1 clinical isolates; assay: Antiviral assay in PBMCs with HIV-1 clinical isolates (RT endpoint); type: cell-based; details: Human immunodeficiency virus 1, PBMC, 168 h, read-out: mean EC50
Method: Antiviral assays using fresh human PBMCs independently infected with a panel of clinical HIV-1 and HIV-2 isolates were performed by Southern Research as a contracted research study and assessed 7 days post-infection using reverse transcriptase (RT) endpoint assay. Antiviral assays using HIV-1 reporter viruses containing patient-derived sequences encoding all of PR and a portion of RT (amino acids 1–313) and conferring resistance to FDA-approved HIV PIs were performed by Monogram Biosciences Inc. (South San Francisco, CA) using their previously described Phenosense assay ([25]).

[6] = system: HIV-1 Gag (p55) polyprotein cleavage; assay: Gag polyprotein processing immunoblot in transfected HEK293T cells; type: cell-based; details: 2 days post-transfection, anti-p24 immunoblot
[7] = Cytotoxicity in stimulated PBMCs; type: cell-based; details: human
Method: as §1

RSV = assay: RSV-Fluc reporter antiviral assay; details: human respiratory syncytial virus, NHBE
Method: as §3

SARS-CoV-2 = assay: SARS-CoV2-Nluc reporter antiviral assay; details: Severe acute respiratory syndrome coronavirus 2
Method: as §3

[8] = Repeated oral administration in dogs; type: in vivo; details: high doses
[9] = Predicted clearance from rat liver microsome fractions; type: in vitro ADME
[10] = system: HIV-1LAI wild type and site-directed PR mutants; assay: microbe, parasite or virus in culture; type: cell-based
[11] = Metabolic stability of radiolabeled GS-9770 in human liver microsomes; type: in vitro ADME; details: radiolabeled GS-9770, human liver microsomes
[12] = system: panel of 49 patient-derived HIV-1 reporter viruses with PI resistance-associated substitutions; type: cell-based
[13] = Cytotoxicity in A549-hACE2; type: cell-based; details: human, A549-hACE2 cells
Method: as §1

In the case of `CC(C)(CC1(c2ccc(-c3cnn(C4CC4)n3)cc2)NC(=N)N(C(COC(=O)NC2(C(F)F)CC2)c2ccc(Cl)c(-c3ncnn3C(F)F)c2)C1=O)C(F)(F)F` (stereo not shown) [GS-9770], the “GS-9770 concentration at variant first emergence” value (HIV-1 IIIb; variant L24I M46L A77I V82A) is reported as 100 nM, the “GS-9770 concentration at variant first emergence” value (HIV-1 IIIb; variant M46L A77I V82A) is reported as 100 nM and the EC50 (HIV-1IIIb) is reported as 4 nM. For the same compound, the CC50 (Cytotoxicity in Huh-7) was 17000 ± 3000 nM, the EC50 (HIV-1 BaL [1]) was 8.5 ± 2.5 nM and the CC50 (Cytotoxicity in NHBE) was 4700 ± 1700 nM. The CC50 (in vitro) was 15100 ± 2100 nM, the “in vitro predicted blood CL” value [2] was 2.5 mL/min/kg and the EC50 (HCV-1b) was 10800 ± 500 nM. For the same compound, the “predicted plasma half-life in humans” value [3] was ~ 18.5 hours, the EC50 (HBV) was 11000 ± 4000 nM and the EC50 (HIV-1 BaL [4]) was 11 ± 14 nM. The EC50 [5] was 7.3 nM, the “concentration at which Gag polyprotein cleavage and release of mature p24 substantially reduced” value [6] was 10 nM and the “concentration giving complete inhibition of p24 formation” value [6] was 100 nM. It also gave a CC50 [7] of 9100 ± 600 nM, an EC50 (RSV) of 2500 ± 600 nM and an EC50 (SARS-CoV-2) of 5300 ± 1900 nM. The “finding after repeated oral administration” value [8] was “bronchoalveolar inflammation observed in the lungs of dogs”, the “in vitro predicted blood CL” value [9] was 1.2 mL/min/kg and the EC50 ([10]; Human immunodeficiency virus 1, PR L24I M46L A77I V82A) was 5.9 ± 3.2 nM. It also gave an EC50 ([10]; Human immunodeficiency virus 1, PR L24I M46L I64V A77I V82A) of 22.4 ± 7.3 nM, an EC50 ([10]; Human immunodeficiency virus 1, PR M46L A77I V82A) of 8.3 ± 1.8 nM and an EC50 ([10]; Human immunodeficiency virus 1, PR V82A) of 8.2 ± 3.2 nM. The EC50 ([10]; Human immunodeficiency virus 1, Wild type (WT) HIV-1LAI) was 3.1 ± 1.6 nM, the “predicted human plasma clearance” value [11] was 1.5 mL/min/kg and the loss in susceptibility ([12]; virus 8, virus 11 and virus 42) was 3 fold. The “mutant vs wild-type HIV EC50 FC” value ([12]; virus 13 (L10I, M46I, G48V, I50V, V82A, L90M)) was 21 fold, the “mutant vs wild-type HIV EC50 FC” value ([12]; virus 29 (L10F/L, D30N, I54V, N88D, L90M)) was 12 fold and the “mutant vs wild-type HIV EC50 FC” value ([12]; virus 43 (L10I, M46L, I54V, V82A)) was 11 fold. It also gave a CC50 [13] of 7800 ± 2100 nM.
